PMC6017342, “Discovery of Oxime Ethers as Hepatitis B Virus (HBV) Inhibitors by Docking, Screening and In Vitro Investigation” (Molecules : A Journal of Synthetic Chemistry and Natural …, 2018)
Where “and” joins values, the source holds several entries; their conditions need not be identical. Identical values can stand only once. Like-named read-outs stand apart in the source and are kept apart here.

Key:
[1] = test system: secretion of HBsAg in HepG2.2.15 cells; assay: microbe, parasite or virus in culture; format: cell-based, Hepatitis B virus; conditions: for IC50 / HBsAg IC50: - = inhibition ratio less than 50% in the test concentration range
Excerpt: (§1) The anti-HBV activities of the compounds were expressed as the concentration of compound that achieved 50% inhibition (IC50) to the secretion of HBsAg and HBeAg. […] The cytotoxicity of compounds was expressed as the concentration of compound required to kill 50% (TC50) of the HepG2.2.15 cells.
(§2) HepG2.2.15 (clonal cells derived from human hepatoma cell line G2) cells were provided by the Chinese Academy of Medical Sciences (P.R. China) and maintained in minimal essential medium (MEM) supplemented with 10% fetal bovine serum and 380 μg/mL of G418, 50 ug/mL of kanamycin, and 0.03% L-glutamine at 37 °C in a 5% CO2 atmosphere with 100% humidity.
(§3) HepG2.2.15 cells were seeded at a density of 1 × 10^5 cells/ml ([…]) in 96-well plates and maintained at 37 °C for 24 h prior to extract addition, followed by treatment with various concentrations of drugs. […] Cells were treated with drug-containing fresh medium every 3 d for up to 9 d in a time-dependent experiment. Medium was taken at the 9th day of the treatment and stored at −20 °C until analysis. The IC50 and selected index (SI) of each compound were calculated, respectively.
(§4) The levels of HBV surface antigen (HBsAg) and HBV e antigen (HBeAg) in the supernatant of the HepG2.2.15 cell were simultaneously detected using enzyme-linked immunosorbent assay (ELISA) kits (Rongsheng Biotechnology Co. Ltd., Shanghai, China) according to the manufacturer’s instructions.The synthesized derivatives were expressed as the concentration of compound that achieved 50% inhibition (IC50) to the secretion of HBsAg and HBeAg. The selectivity index (SI) was determined as the ratio of CC50 to IC50, which is a major pharmaceutical parameter of estimates possible for future clinical application.

HepG2.2.15 cells = assay: Cytotoxicity on HepG2.2.15 cells (MTT assay, 9 days); format: cell-based, human; conditions: HepG 2.2.15 cell
Protocol: as §2
HepG2.2.15 cells were seeded at a density of 1 × 10^5 cells/ml ([…]) in 96-well plates and maintained at 37 °C for 24 h prior to extract addition, followed by treatment with various concentrations of drugs. Lamivudine (3TC) was served as the positive control. Cells were treated with drug-containing fresh medium every 3 d for up to 9 d in a time-dependent experiment. Medium was taken at the 9th day of the treatment and stored at −20 °C until analysis. The IC50 and selected index (SI) of each compound were calculated, respectively.
Logarithmically growing cells were seeded in 96-well culture plates at a density of 1 × 10^5 cells/mL ([…]). They were cultured for 24 h and then treated with various concentrations of drugs. Optical density (OD) values were read at 450 nm after 9 days and the percentage of cell death was calculated; the cells were treated with drug-containing fresh medium every 3 d for up to 9 d. After drug treatment, the cytotoxicity was measured using the MTT assay.

[2] = test system: secretion of HBeAg in HepG2.2.15 cells; assay: Inhibition of HBeAg secretion in HepG2.2.15 cells (ELISA); format: cell-based, Hepatitis B virus; conditions: 9 days
Excerpt: as §1, §2, §3, §4

[3] = Hepatitis B virus, HepG2.2.15, 216 h, read-out: HBsAg IC50, HepG2.2.15 cells, 9 days, ELISA
[4] = Hepatitis B virus, HepG2.2.15, 216 h, ELISA, - = inhibition ratio less than 50% in the test concentration range
[5] = HepG2.2.15 cells, 9 days, ELISA
[6] = ELISA, - = inhibition ratio less than 50% in the test concentration range
[7] = HepG2.2.15 cells, 9 days, ELISA, read-out: HBsAg IC50

Row | Compound | IC50 [1, 3] [µM] | TC50 (50% cytotoxicity concentration) (HepG2.2.15 cells) | HBsAg SI (selectivity index = TC50/IC50) ([1]; HepG2.2.15 cells, 9 days) | IC50 [2, 4] [µM] | HBsAg IC50 [1, 5] | HBeAg SI (selectivity index = TC50/IC50) [2] | HBeAg IC50 [2, 6] | melting point [°C] | IC50 [1, 7] [µM] | IC50 [2, 6] [µM]
1 | Nc1ccn([C@@H]2CS[C@H](CO)O2)c(=O)n1 [Compound 3TC, Lamivudine, reference compound] | 291 | 517.40 µM |  |  |  |  |  |  |  | 
2 | CCOC(=O)CC/C(=N\OC)C(=O)c1ccc(C)cc1 [Compound 3a-1, Ethyl (E)-4-(4-methylbenzoyl)-4-[(methoxy)imino]butanoate] | 293 | >1500 µM | >5.12 | > 359 |  |  |  |  |  | 
3 | CCOC(=O)CC/C(=N\OC)c1ccc(OC)cc1 [Compound 3b-1, Ethyl (E)-4-(4-methoxyphenyl)-4-[(methoxy)imino]butanoate] | > 293 | 1383.74 µM |  | > 359 | inhibitory activity could be neglected |  |  |  |  | 
4 | CCOC(=O)CC/C(=N\OC)c1ccc(Cl)cc1 [Compound 3c-1, Ethyl (E)-4-(4-chlorophenyl)-4-[(methoxy)imino]butanoate] | 225 | 450.67 µM | 2.00 | > 359 |  |  |  |  |  | 
5 | CO/N=C(\CCC(=O)OCc1ccco1)c1ccc(OC)cc1 [Compound 4b-1, Furan-2-ylmethyl (E)-4-(4-methoxyphenyl)-4-[(methoxy)imino]butanoate] | 128 | 347.55 µM | 2.72 | > 359 |  |  |  |  |  | 
6 | COc1ccc(/C(CCC(=O)OCc2ccco2)=N/OCc2ccccc2)cc1 [Compound 4b-2, Furan-2-ylmethyl (E)-4-(4-methoxyphenyl)-4-[(benzyloxy)imino]butanoate] | 234 | 1153.49 µM | 4.94 | > 359 |  |  |  |  |  | 
7 | CO/N=C(\CCC(=O)OCc1ccco1)c1ccc(Cl)cc1 [Compound 4c-1, Furan-2-ylmethyl (E)-4-(4-chlorophenyl)-4-[(methoxy)imino]butanoate] | > 293 | >1500 µM |  | > 359 | non |  |  |  |  | 
8 | CO/N=C(\CCC(=O)Nc1ccccc1)c1ccc(OC)cc1 [Compound 5b-1, (E)-4-(4-Methoxyphenyl)-4-[(methoxy)imino]-N-phenylbutanamide] | 208 | 473.25 µM | 2.28 | > 359 |  |  |  |  |  | 
9 | CO/N=C(\CCC(=O)Nc1ccccc1)c1ccc(Cl)cc1 [Compound 5c-1, (E)-4-(4-Chlorophenyl)-4-[(methoxy)imino]-N-phenylbutanamide] |  | 1138.45 µM and >1500 µM | 28.51 | 246 |  | 4.63 | non |  |  | 
10 | O=C(CC/C(=N\OCc1ccccc1)c1ccc(Cl)cc1)Nc1ccccc1 [Compound 5c-2, (E)-4-(4-Chlorophenyl)-4-[(benzyloxy)imino]-N-phenylbutanamide] |  |  |  |  |  |  |  | 116 to 117.9 |  | 
11 | (E)-4-(4-Methoxyphenyl)-4-[(benzyloxy)imino]-N-phenylbutanamide [Compound 5b-2] |  | >1500 µM | >14.82 |  |  | >7.83 |  |  | 101 | 192
12 | (E)-4-(4-Methylbenzoyl)-4-[(methoxy)imino]-N-phenylbutanamide [Compound 5a-1] |  | >1500 µM | >20.02 |  |  | >5.48 |  |  | 74.9 | 274
13 | Ethyl (E)-4-(4-chlorophenyl)-4-[(benzyloxy)imino]butanoate [Compound 3c-2] |  | 127.10 µM | 1.34 |  |  | 1.34 |  |  | 94.7 | 93.9
14 | Ethyl (E)-4-(4-methoxyphenyl)-4-[(benzyloxy)imino]butanoate [Compound 3b-2] |  | 429.88 µM | 4.95 |  |  |  |  |  | 86.9 | > 359
15 | Ethyl (E)-4-(4-methylbenzoyl)-4-[(benzyloxy)imino]butanoate [Compound 3a-2] |  | >1500 µM |  |  | non |  |  |  | > 293 | > 359
16 | Furan-2-ylmethyl (E)-4-(4-chlorophenyl)-4-[(benzyloxy)imino]butanoate [Compound 4c-2] |  | >1500 µM |  |  |  |  |  |  | > 293 | > 359
17 | Furan-2-ylmethyl (E)-4-(4-methylbenzoyl)-4-[(benzyloxy)imino]butanoate [Compound 4a-2] |  | >1500 µM |  |  | non |  |  |  | > 293 | > 359
